Results on 1 compound are retold here after patent publication US10837968B2, “Photoactivatable voltage sensitive dyes” (THE REGENTS OF THE UNIVERSITY OF CALIFORNIA, priority 2014, dated 2020).

Data set [1] is described as follows: Spectroscopic characterization of SPOT in PBS, pH 7, before and after UV illumination. Format: physicochemical. The procedure:
(§1) FIGS. 1A-1E. Illumination of SPOT dramatically increases fluorescence. Spectroscopic characterization of SPOT in PBS, pH 7. a) Absorbance profile of SPOT before (grey dotted trace) and after (green trace) illumination at 365 nm. The UV-vis spectrum of photoactivated SPOT is identical to a known standard of VF2.1.C1 (black trace). b) Emission spectrum of SPOT before (grey dotted trace) and after illumination (green trace) at 365 nm. c) HEK cells loaded with 200 nM SPOT prior to illumination. d) Cells from c) after illumination with 390 nm light for 30 seconds. e) Quantification of cellular fluorescence from cells stained with SPOT pre- and post-UV photoactivation. Illumination as in panel d) gives a 12-fold increase in fluorescence intensity (n=3).
FIG. 2. Characterization of SPOT photoproducts.
SPOT is readily available in one step from previously reported VoltageFluor compounds (Miller, et al., Natl Acad Sci USA, 2012, 109:2114). Alkylation of VF2.1.C1 with 2-nitro-4,5-dimethoxybenzylbromide in DMF provides SPOT as an analytically pure sample after purification via HPLC. Larger quantities are available through an alternate route in which the sulfonefluorescein head-group is first alkylated and then coupled to the phenylenevinylene molecular wire to give SPOT. We examined the photophysical behavior and characteristics of SPOT under simulated physiological conditions (PBS, pH 7). […] Emission from SPOT is minimal (FIG. 1B, grey trace), as reflected by its low fluorescence quantum yield. UV illumination of SPOT promptly delivers VF, as measured by complete recovery of absorbance profiles characteristic of VF2.1.C1 (FIG. 1A, green and black traces) and a 25-fold increase in fluorescence emission (FIG. 1B green trace).

The test system of data set [2] is human embryonic kidney cells (HEK 293). In words: Cellular fluorescence of SPOT-stained HEK cells pre- and post-UV photoactivation. In kind it is cell-based. The note with it: HEK cells loaded with 200 nM SPOT; 390 nm light for 30 seconds; n=3. The procedure:
as §1
We next turned our attention to assessing the properties of SPOT in living cells. […] Illumination with 390 nm (30 s) light results in an immediate increase in cell membrane-associated fluorescence characteristic of VoltageFluor staining (FIG. 1D). […] Membrane-associated fluorescence depends on prior UV illumination, as examination of areas of the same sample not exposed to light show very little cellular fluorescence. […] Following illumination, the cells stained with SPOT become bright and voltage-sensitive. […]

Where “and” joins values, the source holds several entries; their conditions need not be identical. Identical values can stand only once. Entries after “also recorded” stand apart in the source; their conditions may differ.

As for `COc1cc(COc2cc3oc4cc(=O)c(Cl)cc-4c(-c4ccc(/C=C/c5ccc(/C=C/c6ccc(N(C)C)cc6)cc5)cc4S(=O)(=O)O)c3cc2Cl)c([N+](=O)[O-])cc1OC` [SPOT, 2-(2,7-dichloro-6-((4,5-dimethoxy-2-nitrobenzyl)oxy)-3-oxo-3H-xanthen-9-yl)-5-((E)-4-((E)-4-(dimethylamino)styryl)styryl)benzenesulfonic acid], in data set [1] (PBS, pH 7, before illumination), the “absorbance maximum (λmax / strong absorbance)” value turned out to be 400 nm and the fluorescence quantum yield entry is recorded as “low”. Further, the “increase in fluorescence emission after UV illumination” value in data set [1] (PBS, pH 7, illumination at 365 nm) stood at 25 fold. In data set [1] (phosphate buffered saline, pH 7.0, 365 nm light), the “photoproduct of irradiation (HPLC and mass spectrometry)” value was “clean conversion of SPOT into VF2.1.C1; also recorded: cleanly gives VF2.1.C1”. The “increase in mean cellular fluorescence intensity following irradiation” value in data set [2] is 12±1.2 fold and 12 fold.
